Results published in ChEMBL document CHEMBL3808394, “Synthesis and decreasing Aβ content evaluation of arctigenin-4-yl carbamate derivatives” (Bioorg Med Chem Lett, 2016).
Activity calls are given as the source filed them. The rule behind the calls is not given here.

Legend:
Format in all cases: cell-based
[1] = molecular target: Amyloid-beta precursor protein (Homo sapiens) (UniProt P05067); experiment: Reduction in amyloid beta 40 content (unknown origin) expressed in HEK293 cells expressing APP K595N/M596L Swedish mutant at 20 uM after 24 hrs by ELISA
[2] = molecular target: Amyloid-beta precursor protein (Homo sapiens) (UniProt P05067); experiment: Reduction in amyloid beta 40 content (unknown origin) expressed in HEK293 cells expressing APP K595N/M596L Swedish mutant at 0.1 uM after 24 hrs by ELISA
[3] = molecular target: Amyloid-beta precursor protein (Homo sapiens) (UniProt P05067); experiment: Reduction in amyloid beta 40 content (unknown origin) expressed in HEK293 cells expressing APP K595N/M596L Swedish mutant at 1 uM after 24 hrs by ELISA
[4] = molecular target: Amyloid-beta precursor protein (Homo sapiens) (UniProt P05067); experiment: Reduction in amyloid beta 40 content (unknown origin) expressed in HEK293 cells expressing APP K595N/M596L Swedish mutant at 10 uM after 24 hrs by ELISA

Amyloid-beta precursor protein (Homo sapiens), sequence (P05067 whole entry): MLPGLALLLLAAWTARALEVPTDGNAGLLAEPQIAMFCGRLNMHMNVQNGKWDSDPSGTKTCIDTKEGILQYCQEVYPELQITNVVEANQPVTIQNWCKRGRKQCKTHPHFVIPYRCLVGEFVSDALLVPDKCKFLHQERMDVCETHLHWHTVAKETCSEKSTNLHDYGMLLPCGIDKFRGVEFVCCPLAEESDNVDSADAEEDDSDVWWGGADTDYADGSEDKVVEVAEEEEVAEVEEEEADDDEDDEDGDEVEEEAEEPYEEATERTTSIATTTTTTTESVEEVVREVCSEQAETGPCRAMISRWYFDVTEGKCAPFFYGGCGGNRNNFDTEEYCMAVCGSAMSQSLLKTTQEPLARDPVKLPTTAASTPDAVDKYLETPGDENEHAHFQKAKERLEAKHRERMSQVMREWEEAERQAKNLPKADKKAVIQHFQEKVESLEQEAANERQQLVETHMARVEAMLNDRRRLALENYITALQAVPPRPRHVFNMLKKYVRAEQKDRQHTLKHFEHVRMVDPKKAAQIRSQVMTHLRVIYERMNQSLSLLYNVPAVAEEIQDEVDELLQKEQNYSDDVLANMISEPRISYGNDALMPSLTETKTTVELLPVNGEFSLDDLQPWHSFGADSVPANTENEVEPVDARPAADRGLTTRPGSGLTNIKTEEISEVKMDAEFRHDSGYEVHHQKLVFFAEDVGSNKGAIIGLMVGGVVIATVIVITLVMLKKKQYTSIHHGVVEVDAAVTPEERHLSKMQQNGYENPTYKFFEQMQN

For `COc1ccc(C[C@H]2COC(=O)[C@@H]2Cc2ccc(OC(=O)Nc3cccc(Cl)c3)c(OC)c2)cc1OC`, the inhibition [1] was 78.7%, the inhibition [2] was “inactive” and the inhibition [3] was “Active”. The inhibition [4] was “Active”.
With `COc1ccc(C[C@H]2COC(=O)[C@@H]2Cc2ccc(OC(=O)Nc3cccc(F)c3)c(OC)c2)cc1OC` the inhibition [1] was 61%.
`COc1cccc(NC(=O)Oc2ccc(C[C@H]3C(=O)OC[C@@H]3Cc3ccc(OC)c(OC)c3)cc2OC)c1` was tested, and the inhibition [1] was 52.8%.
Compound `COc1ccc(C[C@H]2COC(=O)[C@@H]2Cc2ccc(OC(=O)Nc3cc(Cl)cc(Cl)c3)c(OC)c2)cc1OC` has an inhibition [1] of 56%.
`COc1ccc(C[C@H]2COC(=O)[C@@H]2Cc2ccc(OC(=O)Nc3ccc(C)c(Cl)c3)c(OC)c2)cc1OC` showed an inhibition [1] of 53.7%.
`COc1ccc(C[C@H]2COC(=O)[C@@H]2Cc2ccc(OC(=O)NCCc3ccccc3)c(OC)c2)cc1OC` was tested, and the inhibition [1] was 49%.
`COc1ccc(C[C@H]2COC(=O)[C@@H]2Cc2ccc(OC(=O)N(C)c3cccc(Cl)c3)c(OC)c2)cc1OC` gave an inhibition [1] of 41%.
Compound `COc1ccc(C[C@H]2COC(=O)[C@@H]2Cc2ccc(OC(=O)Nc3cccc(C)c3)c(OC)c2)cc1OC` has an inhibition [1] of 55%.
Work on `COc1ccccc1NC(=O)Oc1ccc(C[C@H]2C(=O)OC[C@@H]2Cc2ccc(OC)c(OC)c2)cc1OC` yielded an inhibition [1] of 61.7%.
For `COc1ccc(C[C@H]2COC(=O)[C@@H]2Cc2ccc(OC(=O)Nc3ccccc3)c(OC)c2)cc1OC`, the inhibition [1] was 43.5%.
`CCCNC(=O)Oc1ccc(C[C@H]2C(=O)OC[C@@H]2Cc2ccc(OC)c(OC)c2)cc1OC` showed an inhibition [1] of 20.3%.
With `COc1ccc(C[C@H]2COC(=O)[C@@H]2Cc2ccc(OC(=O)NCc3ccccc3)c(OC)c2)cc1OC` the inhibition [1] was 41.3%.
Work on `CCN(CC)C(=O)Oc1ccc(C[C@H]2C(=O)OC[C@@H]2Cc2ccc(OC)c(OC)c2)cc1OC` yielded an inhibition [1] of 11.9%.
Work on `CCNC(=O)Oc1ccc(C[C@H]2C(=O)OC[C@@H]2Cc2ccc(OC)c(OC)c2)cc1OC` yielded an inhibition [1] of 36.3%.
Compound `COc1ccc(Cl)cc1NC(=O)Oc1ccc(C[C@H]2C(=O)OC[C@@H]2Cc2ccc(OC)c(OC)c2)cc1OC` has an inhibition [1] of 42.4%.
`COc1ccc(C[C@H]2COC(=O)[C@@H]2Cc2ccc(OC(=O)Nc3cccc(C#N)c3)c(OC)c2)cc1OC` was tested, and the inhibition [1] was 56%.
`COc1ccc(C[C@H]2COC(=O)[C@@H]2Cc2ccc(OC(=O)N(C)C)c(OC)c2)cc1OC` was tested, and the inhibition [1] was 28.5%.
`COc1ccc(C[C@H]2COC(=O)[C@@H]2Cc2ccc(N3CCCCC3)c(OC)c2)cc1OC` gave an inhibition [1] of 26.2%.
`COc1ccc(C[C@H]2COC(=O)[C@@H]2Cc2ccc(OC(=O)Nc3ccc(Cl)cc3)c(OC)c2)cc1OC` was tested, and the inhibition [1] was 66.9%, the inhibition [2] was “inactive” and the inhibition [3] was “Active”. For the same compound, the inhibition [4] was “Active”.
In the case of `COc1cc(C[C@H]2C(=O)OC[C@@H]2Cc2ccc(OC)c(OC)c2)ccc1O`, the inhibition [1] is reported as 44.6%, the inhibition [2] is reported as “inactive” and the inhibition [3] is reported as “inactive”. For the same compound, the inhibition [4] was “Active”.
With `COc1ccc(C[C@H]2COC(=O)[C@@H]2Cc2ccc(OC(=O)N[C@@H](C)c3ccccc3)c(OC)c2)cc1OC` the inhibition [1] was 70.8%.
For `COc1ccc(C[C@H]2COC(=O)[C@@H]2Cc2ccc(OC(=O)Nc3ccc(F)c(Cl)c3)c(OC)c2)cc1OC`, the inhibition [1] was 60.5%.
For `COc1ccc(C[C@H]2COC(=O)[C@@H]2Cc2ccc(OC(=O)Nc3cccc([N+](=O)[O-])c3)c(OC)c2)cc1OC`, the inhibition [1] was 63%.
With `COc1ccc(C[C@H]2COC(=O)[C@@H]2Cc2ccc(OC(=O)Nc3ccccc3Cl)c(OC)c2)cc1OC` the inhibition [1] was 58.3%.
With `COc1ccc(C[C@H]2COC(=O)[C@@H]2Cc2ccc(OC(=O)NC(C)C)c(OC)c2)cc1OC` the inhibition [1] was 21.4%.
In the case of `COc1ccc(C[C@H]2COC(=O)[C@@H]2Cc2ccc(OC(=O)N(C)c3ccccc3)c(OC)c2)cc1OC`, the inhibition [1] is reported as 30%.
Work on `COc1ccc(C[C@H]2COC(=O)[C@@H]2Cc2ccc(OC(=O)N[C@H](C)c3ccccc3)c(OC)c2)cc1OC` yielded an inhibition [1] of 45%.
`COc1ccc(C[C@H]2COC(=O)[C@@H]2Cc2ccc(OC(=O)NC3CCCCC3)c(OC)c2)cc1OC` was tested, and the inhibition [1] was 35.4%.
In the case of `CNC(=O)Oc1ccc(C[C@H]2C(=O)OC[C@@H]2Cc2ccc(OC)c(OC)c2)cc1OC`, the inhibition [1] is reported as 29.8%.
Work on `COc1ccc(C[C@H]2COC(=O)[C@@H]2Cc2ccc(OC(=O)Nc3cccc(Cl)c3C)c(OC)c2)cc1OC` yielded an inhibition [1] of 62.8%.
In the case of `COc1ccc(NC(=O)Oc2ccc(C[C@H]3C(=O)OC[C@@H]3Cc3ccc(OC)c(OC)c3)cc2OC)cc1`, the inhibition [1] is reported as 52.9%.
